Structures can show the parent of a compound that is named as a salt. Where two headings read alike, the source gives them in different places.
Key:
Type in all cases: biochemical
JAK3 = JAK3 (Homo sapiens (Human), UniProt P52333); experiment: JAK3 Inhibition Assay (Example D, Omnia kinase fluorescence peptide substrate assay)
Outline: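 Omnia Sox-peptide kinetic read (ex 360 nm, em 485 nm, every 50 s over 45 min) tracked phosphorylation of 10 μM Y7 peptide by 2 nM recombinant JAK3 at 1 mM ATP. Buffer: 25 mM HEPES pH 7.4, 10 mM MgCl2, 0.01% Triton X-100, 1 mM DTT, with 2% DMSO final.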

JAK1 = JAK1 (Homo sapiens (Human), UniProt P23458); experiment: JAK1 Inhibition Assay (Example B, Omnia kinase fluorescence peptide substrate assay)
Outline: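 Kinetic fluorescence read (360 nm excitation, 485 nm emission, every 50 s over 45 min) of Omnia Y12 peptide (8 μM) phosphorylation by 12.5 nM human JAK1 at 1 mM ATP. Buffer: HEPES pH 7.4, MgCl2, Triton X-100, DTT; 2% DMSO. IC50 = concentration giving 50 POC on logistic curve.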

Human Tyk2 kinase domain = Human Tyk2 kinase domain (Homo sapiens (Human), UniProt P29597); experiment: Tyk2 Inhibition Assay (Example A, Omnia kinase fluorescence peptide substrate assay); conditions: TYK2 Enzyme IC50 1 mM ATP, averaged IC50 ranges
Outline: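 IC50 values come from a 4-parameter logistic fit of percent-of-control data, with compounds at 2% final DMSO. Reactions held 1 nM His-tag-cleaved Tyk2 (aa 886–1187), 8 μM Omnia Y12 peptide and 1 mM ATP in pH 7.4 HEPES buffer with 10 mM MgCl2, Triton X-100 and DTT. Sox fluorescence (360/485 nm) was monitored kinetically over 45 min.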

JAK2 = JAK2 (Homo sapiens (Human), UniProt O60674); experiment: JAK2 Inhibition Assay (Example C, Omnia kinase fluorescence peptide substrate assay); conditions: JAK2 Enzyme IC50 1 mM ATP, averaged IC50 ranges
Outline: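 Kinetic fluorescence read of Omnia Y7 peptide (10 μM) phosphorylation, ex 360/em 485 nm every 50 s over 45 min, by 4 nM JAK2 at 1 mM ATP. Buffer 25 mM HEPES pH 7.4, 10 mM MgCl2, 0.01% Triton X-100, 1 mM DTT; final DMSO 2%. Percent-of-control values fitted by 4-parameter logistic for IC50.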

[1] = JAK1 Enzyme IC50 1 mM ATP, 1 mM ATP, averaged IC50 ranges

Sequence of JAK3 (P52333 whole entry): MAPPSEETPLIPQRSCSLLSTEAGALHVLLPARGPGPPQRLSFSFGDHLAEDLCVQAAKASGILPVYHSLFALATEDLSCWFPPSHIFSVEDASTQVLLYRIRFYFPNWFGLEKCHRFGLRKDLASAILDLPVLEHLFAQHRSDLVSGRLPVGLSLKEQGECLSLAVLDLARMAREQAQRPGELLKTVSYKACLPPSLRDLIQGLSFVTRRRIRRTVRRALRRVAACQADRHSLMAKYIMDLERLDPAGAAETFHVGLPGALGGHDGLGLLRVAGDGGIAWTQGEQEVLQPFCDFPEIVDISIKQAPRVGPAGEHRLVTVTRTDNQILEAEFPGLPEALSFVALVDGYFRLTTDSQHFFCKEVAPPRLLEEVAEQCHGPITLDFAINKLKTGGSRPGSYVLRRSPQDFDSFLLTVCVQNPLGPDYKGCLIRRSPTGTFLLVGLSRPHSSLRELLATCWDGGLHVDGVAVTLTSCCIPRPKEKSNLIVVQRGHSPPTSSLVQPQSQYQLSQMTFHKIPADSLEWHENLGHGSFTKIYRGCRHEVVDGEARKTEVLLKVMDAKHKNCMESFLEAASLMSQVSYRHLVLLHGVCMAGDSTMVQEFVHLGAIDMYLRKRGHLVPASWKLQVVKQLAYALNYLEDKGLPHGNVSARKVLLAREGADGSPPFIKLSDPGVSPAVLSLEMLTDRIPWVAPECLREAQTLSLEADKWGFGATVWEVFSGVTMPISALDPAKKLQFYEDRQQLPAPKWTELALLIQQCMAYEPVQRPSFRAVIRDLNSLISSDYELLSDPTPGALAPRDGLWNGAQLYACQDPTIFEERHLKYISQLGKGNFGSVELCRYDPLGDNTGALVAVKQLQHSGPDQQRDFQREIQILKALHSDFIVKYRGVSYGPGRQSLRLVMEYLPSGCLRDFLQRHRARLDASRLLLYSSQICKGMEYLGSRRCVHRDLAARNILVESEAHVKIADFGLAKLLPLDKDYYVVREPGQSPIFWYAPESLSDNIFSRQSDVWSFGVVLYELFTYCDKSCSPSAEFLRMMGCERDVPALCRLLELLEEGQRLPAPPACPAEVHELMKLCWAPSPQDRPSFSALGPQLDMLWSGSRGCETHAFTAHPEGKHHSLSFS
Sequence of JAK1 (P23458 whole entry): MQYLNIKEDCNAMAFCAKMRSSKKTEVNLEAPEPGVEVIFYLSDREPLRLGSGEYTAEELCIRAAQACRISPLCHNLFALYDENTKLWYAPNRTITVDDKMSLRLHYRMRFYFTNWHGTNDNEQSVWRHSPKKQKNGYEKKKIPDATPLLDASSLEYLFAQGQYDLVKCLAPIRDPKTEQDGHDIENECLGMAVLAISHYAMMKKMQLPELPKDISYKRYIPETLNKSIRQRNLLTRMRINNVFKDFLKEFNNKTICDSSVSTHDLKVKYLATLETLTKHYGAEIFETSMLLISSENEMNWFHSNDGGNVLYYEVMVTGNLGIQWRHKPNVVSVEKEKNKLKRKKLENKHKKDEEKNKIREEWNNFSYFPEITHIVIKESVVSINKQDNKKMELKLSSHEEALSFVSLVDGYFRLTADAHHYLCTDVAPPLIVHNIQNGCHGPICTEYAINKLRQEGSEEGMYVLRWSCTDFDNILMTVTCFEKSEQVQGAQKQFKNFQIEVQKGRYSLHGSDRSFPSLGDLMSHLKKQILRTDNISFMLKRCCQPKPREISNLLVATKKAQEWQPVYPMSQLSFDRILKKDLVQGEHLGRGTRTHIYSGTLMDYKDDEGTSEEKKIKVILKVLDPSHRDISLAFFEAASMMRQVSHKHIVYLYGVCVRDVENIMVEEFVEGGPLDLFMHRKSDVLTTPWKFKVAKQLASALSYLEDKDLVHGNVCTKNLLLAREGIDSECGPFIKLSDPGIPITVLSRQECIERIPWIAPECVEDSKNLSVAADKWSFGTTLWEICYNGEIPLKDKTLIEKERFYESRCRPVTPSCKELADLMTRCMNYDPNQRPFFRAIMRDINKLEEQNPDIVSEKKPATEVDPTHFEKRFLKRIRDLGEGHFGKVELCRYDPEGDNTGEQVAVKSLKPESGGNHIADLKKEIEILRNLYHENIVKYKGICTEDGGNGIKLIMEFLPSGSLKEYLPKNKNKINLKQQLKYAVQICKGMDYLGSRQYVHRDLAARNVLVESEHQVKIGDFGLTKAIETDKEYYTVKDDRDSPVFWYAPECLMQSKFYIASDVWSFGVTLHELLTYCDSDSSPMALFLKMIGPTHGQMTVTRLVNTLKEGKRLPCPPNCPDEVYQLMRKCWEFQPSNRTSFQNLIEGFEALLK
Sequence of JAK2 (O60674 whole entry): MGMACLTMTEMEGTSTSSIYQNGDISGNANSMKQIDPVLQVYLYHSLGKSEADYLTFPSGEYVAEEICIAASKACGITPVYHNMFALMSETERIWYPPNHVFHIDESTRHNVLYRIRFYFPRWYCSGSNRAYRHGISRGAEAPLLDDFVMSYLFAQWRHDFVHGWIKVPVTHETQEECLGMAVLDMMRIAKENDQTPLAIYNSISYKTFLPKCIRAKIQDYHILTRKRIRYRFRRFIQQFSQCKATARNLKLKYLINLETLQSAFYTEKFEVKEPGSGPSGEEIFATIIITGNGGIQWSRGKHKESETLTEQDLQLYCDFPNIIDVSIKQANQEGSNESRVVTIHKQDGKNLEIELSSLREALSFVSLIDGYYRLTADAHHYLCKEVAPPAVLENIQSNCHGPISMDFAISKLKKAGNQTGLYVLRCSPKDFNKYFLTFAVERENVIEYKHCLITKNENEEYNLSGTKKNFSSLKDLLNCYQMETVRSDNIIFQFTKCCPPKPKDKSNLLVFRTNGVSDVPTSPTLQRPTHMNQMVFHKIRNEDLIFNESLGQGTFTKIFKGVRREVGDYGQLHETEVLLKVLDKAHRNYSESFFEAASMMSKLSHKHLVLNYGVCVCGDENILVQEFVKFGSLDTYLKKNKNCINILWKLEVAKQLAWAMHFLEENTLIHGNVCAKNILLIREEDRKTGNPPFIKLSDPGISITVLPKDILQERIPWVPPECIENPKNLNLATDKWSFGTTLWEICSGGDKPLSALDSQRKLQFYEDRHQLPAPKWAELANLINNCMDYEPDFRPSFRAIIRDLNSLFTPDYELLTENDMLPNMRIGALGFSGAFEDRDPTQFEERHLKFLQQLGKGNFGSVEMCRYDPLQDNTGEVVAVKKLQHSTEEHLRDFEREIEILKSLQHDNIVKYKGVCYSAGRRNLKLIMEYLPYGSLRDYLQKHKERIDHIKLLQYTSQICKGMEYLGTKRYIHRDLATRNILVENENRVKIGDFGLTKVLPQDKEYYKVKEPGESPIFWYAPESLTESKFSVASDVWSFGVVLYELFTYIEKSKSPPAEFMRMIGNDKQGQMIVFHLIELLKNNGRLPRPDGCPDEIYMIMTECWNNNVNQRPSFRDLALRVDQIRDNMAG
Sequence of Human Tyk2 kinase domain (P29597 886-1187): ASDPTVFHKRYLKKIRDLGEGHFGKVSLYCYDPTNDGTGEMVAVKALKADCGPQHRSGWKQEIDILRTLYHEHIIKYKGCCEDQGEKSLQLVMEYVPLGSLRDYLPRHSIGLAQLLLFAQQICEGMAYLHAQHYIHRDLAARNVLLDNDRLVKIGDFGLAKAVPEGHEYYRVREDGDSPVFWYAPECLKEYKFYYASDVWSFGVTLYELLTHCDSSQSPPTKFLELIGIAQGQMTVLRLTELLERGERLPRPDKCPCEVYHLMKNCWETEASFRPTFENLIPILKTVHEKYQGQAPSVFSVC

IC50 (JAK3) | IC50 (JAK1; [1]) | IC50 (Human Tyk2 kinase domain) | IC50 (JAK2) | IC50 (JAK1) | SMILES
1 to 10 µM | 1 to 10 µM | 0.1 to 1 µM | 0.1 to 1 µM | – | C[C@@H](CC(F)(F)F)n1cc(-c2nc(-c3cnn(C[C@@H](O)CO)c3)cn3nccc23)cn1 [Example 195, (R)-3-(4-(4-(1-((S)-4,4,4-trifluorobutan-2-yl)-1H-pyrazol-4-yl)pyrazolo[1,5-a]pyrazin-6-yl)-1H-pyrazol-1-yl)propane-1,2-diol hydrochloride]
1 to 10 µM | 1 to 10 µM | 0.1 to 1 µM | 0.01 to 0.1 µM | – | CC[C@H]1CCC[C@H]1n1cc(-c2nc(-c3cnn(C[C@@H](O)CO)c3)cn3nccc23)cn1 (single isomer, unassigned) [Example 208]
1 to 10 µM | – | 0.01 to 0.1 µM | 0.01 to 0.1 µM | 0.1 to 1 µM | CCC(CC)n1cc(-c2nc(-c3cnn(C[C@@](C)(O)CO)c3)cn3nccc23)cn1 (single isomer, unassigned) [Example 202]
1 to 10 µM | – | 0.01 to 0.1 µM | 0.01 to 0.1 µM | 0.1 to 1 µM | CCC(CC)n1cc(-c2nc(-c3cnn(C(C)(C)CO)c3)cn3nccc23)cn1 [Example 124, 2-methyl-2-(4-(4-(1-(pentan-3-yl)-1H-pyrazol-4-yl)pyrazolo[1,5-a]pyrazin-6-yl)-1H-pyrazol-1-yl)propan-1-ol]
1 to 10 µM | – | 0.01 to 0.1 µM | 0.01 to 0.1 µM | 1 to 10 µM | CCC(CC)n1cc(-c2nc(-c3cnn(C[C@@H](N)CO)c3)cn3nccc23)cn1 [Example 130, (R)-2-amino-3-(4-(4-(1-(pentan-3-yl)-1H-pyrazol-4-yl)pyrazolo[1,5-a]pyrazin-6-yl)-1H-pyrazol-1-yl)propan-1-ol]
1 to 10 µM | 1 to 10 µM | 0.1 to 1 µM | 0.1 to 1 µM | – | CCC(CC)n1cc(-c2nc(-c3cnn(CC4(O)CCNCC4)c3)cn3nccc23)cn1 [Example 184, 4-((4-(4-(1-(pentan-3-yl)-1H-pyrazol-4-yl)pyrazolo[1,5-a]pyrazin-6-yl)-1H-pyrazol-1-yl)methyl)piperidin-4-ol]
1 to 10 µM | – | 0.01 to 0.1 µM | 0.01 to 0.1 µM | 1 to 10 µM | CCC(CC)n1cc(-c2nc(-c3cnn(C[C@H](N)C(C)(C)O)c3)cn3nccc23)cn1 [Example 183, (S)-3-amino-2-methyl-4-(4-(4-(1-(pentan-3-yl)-1H-pyrazol-4-yl)pyrazolo[1,5-a]pyrazin-6-yl)-1H-pyrazol-1-yl)butan-2-ol]
1 to 10 µM | – | 0.01 to 0.1 µM | 0.01 to 0.1 µM | 0.1 to 1 µM | CCC(CC)n1cc(-c2nc(-c3cnn([C@H]4C[C@H](CO)C4)c3)cn3nccc23)cn1 [Example 165, (trans-3-(4-(4-(1-(pentan-3-yl)-1H-pyrazol-4-yl)pyrazolo[1,5-a]pyrazin-6-yl)-1H-pyrazol-1-yl)cyclobutyl)methanol]
1 to 10 µM | – | 0.01 to 0.1 µM | 0.01 to 0.1 µM | 1 to 10 µM | CCC(CC)n1cc(-c2nc(-c3cnn(C4CN(C(=O)[C@H]5C[C@H](O)C5)C4)c3)cn3nccc23)cn1 [Example 179, (trans-3-hydroxycyclobutyl)(3-(4-(4-(1-(pentan-3-yl)-1H-pyrazol-4-yl)pyrazolo[1,5-a]pyrazin-6-yl)-1H-pyrazol-1-yl)azetidin-1-yl)methanone]

The next lines start with the compound.

SMILES | IC50 (JAK3) | IC50 (JAK1; [1]) | IC50 (Human Tyk2 kinase domain) | IC50 (JAK2) | IC50 (JAK1)
CCC(CC)n1cc(-c2nc(-c3cnn(CCCO)c3)cn3nccc23)cn1 [Example 19, 3-(4-(4-(1-(pentan-3-yl)-1H-pyrazol-4-yl)pyrazolo[1,5-a]pyrazin-6-yl)-1H-pyrazol-1-yl)propan-1-ol] | 1 to 10 µM | – | 1 to 10 µM | 1 to 10 µM | 1 to 10 µM
CCC[C@@H](C)n1cc(-c2nc(-c3cnn(C[C@H](O)CO)c3)cn3nccc23)cn1 [Example 74, (S)-3-(4-(4-(1-((R)-pentan-2-yl)-1H-pyrazol-4-yl)pyrazolo[1,5-a]pyrazin-6-yl)-1H-pyrazol-1-yl)propane-1,2-diol] | 1 to 10 µM | 1 to 10 µM | 0.01 to 0.1 µM | 0.1 to 1 µM | –
CCC(CC)n1cc(-c2nc(-c3cnn([C@H](C)[C@H](O)CO)c3)cn3nccc23)cn1 (single isomer, unassigned) [Example 90] | 1 to 10 µM | – | 0.01 to 0.1 µM | 0.01 to 0.1 µM | 0.1 to 1 µM
CC[C@@H](CC1CC1)n1cc(-c2nc(-c3cnn(C[C@@H](O)CO)c3)cn3nccc23)cn1 [Example 205, (R)-3-(4-(4-(1-((S)-1-cyclopropylbutan-2-yl)-1H-pyrazol-4-yl)pyrazolo[1,5-a]pyrazin-6-yl)-1H-pyrazol-1-yl)propane-1,2-diol] | 1 to 10 µM | 0.1 to 1 µM | 0.01 to 0.1 µM | 0.01 to 0.1 µM | –
CCC(C(=O)O)n1cc(-c2nc(-c3cnn(C)c3)cn3nccc23)cn1 (centres unmarked) [Example 44, 2-(4-(6-(1-methyl-1H-pyrazol-4-yl)pyrazolo[1,5-a]pyrazin-4-yl)-1H-pyrazol-1-yl)butanoic acid] | 1 to 10 µM | 1 to 10 µM | 0.01 to 0.1 µM | 1 to 10 µM | –
CCC(CC)n1cc(-c2nc(-c3cnn(C4CN(C(=O)N(C)C)C4)c3)cn3nccc23)cn1 [Example 40, N,N-dimethyl-3-(4-(4-(1-(pentan-3-yl)-1H-pyrazol-4-yl)pyrazolo[1,5-a]pyrazin-6-yl)-1H-pyrazol-1-yl)azetidine-1-carboxamide] | 1 to 10 µM | – | 0.01 to 0.1 µM | 0.01 to 0.1 µM | 0.1 to 1 µM
CCC(CC)n1cc(-c2nc(-c3cnn(CC(O)CCO)c3)cn3nccc23)cn1 (centres unmarked) [Example 63, 4-(4-(4-(1-(pentan-3-yl)-1H-pyrazol-4-yl)pyrazolo[1,5-a]pyrazin-6-yl)-1H-pyrazol-1-yl)butane-1,3-diol] | 1 to 10 µM | – | 0.01 to 0.1 µM | 0.01 to 0.1 µM | 0.1 to 1 µM
CCC(CC)n1cc(-c2nc(-c3cnn(CC[C@@H](O)CO)c3)cn3nccc23)cn1 [Example 64, (R)-4-(4-(4-(1-(pentan-3-yl)-1H-pyrazol-4-yl)pyrazolo[1,5-a]pyrazin-6-yl)-1H-pyrazol-1-yl)butane-1,2-diol] | 1 to 10 µM | 0.1 to 1 µM | 0.01 to 0.1 µM | 0.01 to 0.1 µM | –
CCC[C@H](C)n1cc(-c2nc(-c3cnn(C[C@@H](O)CO)c3)cn3nccc23)cn1 [Example 72, (R)-3-(4-(4-(1-((S)-pentan-2-yl)-1H-pyrazol-4-yl)pyrazolo[1,5-a]pyrazin-6-yl)-1H-pyrazol-1-yl)propane-1,2-diol] | 1 to 10 µM | 0.1 to 1 µM | 0.1 to 1 µM | 0.1 to 1 µM | –
CCC(CC)n1cc(-c2nc(-c3cnn(C[C@H]4CCC(=O)N4)c3)cn3nccc23)cn1 [Example 18, (R)-5-((4-(4-(1-(pentan-3-yl)-1H-pyrazol-4-yl)pyrazolo[1,5-a]pyrazin-6-yl)-1H-pyrazol-1-yl)methyl)pyrrolidin-2-one] | 1 to 10 µM | – | 0.01 to 0.1 µM | 0.01 to 0.1 µM | 0.01 to 0.1 µM
CCC(CC)n1cc(-c2nc(-c3cnn(C[C@H](O)[C@H](C)O)c3)cn3nccc23)cn1 [Example 65, (2S,3S)-1-(4-(4-(1-(pentan-3-yl)-1H-pyrazol-4-yl)pyrazolo[1,5-a]pyrazin-6-yl)-1H-pyrazol-1-yl)butane-2,3-diol] | 1 to 10 µM | 0.1 to 1 µM | 0.01 to 0.1 µM | 0.01 to 0.1 µM | –

From patent US10189845B2, “4,6-substituted-pyrazolo[1,5-a]pyrazines as janus kinase inhibitors” (ARRAY BIOPHARMA INC., priority 2014, dated 2019)
